Results from patent US12139729B2, “Neurodegenerative disorders” (priority 2013, dated 2024).
Residues, ends and D or L forms follow the SMILES beside them.

Columns and labels:
rat brain slices = experiment: Calcium fluorometry (Fluo-4) in brain slices; format: cell-based; conditions: two hours
Experimental: Increases in intracellular Ca^2+ were monitored by measuring changes in fluorescence in cells loaded with Fluo-4 (Life Technologies Corporation, UK). […] After the 2 hours, slices were incubated in the dark for 40 minutes at room temperature with 1.2 ml/well of loading medium that contained: Tyrode's salt solution (TSS; 137 mM NaCl, 2.7 mM KCl, 1.0 mM MgCl2, 2.5 mM CaCl2, 0.2 mM NaH2PO4, 12.0 NaHCO3, 5.5 glucose, pH 7.4), Fluo-4 (2 μM), Pluronic F127 (0.02%) and probenecid (2 mM). Probenecid is a blocker of the multidrug resistant protein, an ion transporter, and avoids the excretion of the fluorescent molecule from the cell. After incubation, slices were washed with TSS and 1200 μl/well of de-esterification medium, containing TSS and probenecid, were added. Slices were incubated in the dark for 20 minutes at 22° C. Fluorescence measurements (excitation 485 nm, emission 538 nm) were recorded in a Fluostar Optima (BMG, UK) plate reader.

[1] = target: T1, acetylcholinesterase (AChE) (Rattus norvegicus, UniProt P37136); experiment: Acetylcholinesterase enzymatic activity assay (Ellman reagent); format: biochemical
T1 construct: endogenous in cells; host or cells: PC12 cells (released enzyme in the supernatant)
T1 sequence (P37136 32-614): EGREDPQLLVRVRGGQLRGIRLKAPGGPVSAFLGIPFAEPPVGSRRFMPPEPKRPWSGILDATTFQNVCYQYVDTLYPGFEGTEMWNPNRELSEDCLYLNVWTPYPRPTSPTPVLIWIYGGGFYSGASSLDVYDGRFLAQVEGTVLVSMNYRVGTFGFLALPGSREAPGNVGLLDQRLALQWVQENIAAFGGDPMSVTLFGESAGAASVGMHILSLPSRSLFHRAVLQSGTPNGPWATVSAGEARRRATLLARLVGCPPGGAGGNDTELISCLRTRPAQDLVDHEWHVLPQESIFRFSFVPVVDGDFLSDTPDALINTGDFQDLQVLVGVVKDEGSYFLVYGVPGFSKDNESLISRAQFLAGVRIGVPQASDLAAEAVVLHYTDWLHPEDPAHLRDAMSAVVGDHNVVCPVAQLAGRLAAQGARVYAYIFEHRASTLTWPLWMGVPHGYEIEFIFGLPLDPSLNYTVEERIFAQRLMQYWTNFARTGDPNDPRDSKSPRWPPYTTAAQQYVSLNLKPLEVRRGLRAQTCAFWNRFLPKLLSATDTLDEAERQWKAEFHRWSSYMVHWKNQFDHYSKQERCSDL
Experimental: AChE activity was measured using the Ellman reagent that measures the presence of thiol groups as a result of AChE activity. Cells were plated the day before the experiment as for the cell viability assay. Cells were treated with different concentrations of Cyclic T14 (0.1-100 μM) and T30, T14 and Aβ 10 μM alone or combined with Cyclic T14 (0.1 and 0.7 μM). […] The Ellman reagent was prepared as a mixture of the 3 solutions in a ratio 33(A):3(B):4(C). Absorbance measurements were taken at regular intervals (3, 10, 30 and 60 mins) across experiments at 405 nm.
The inventor next decided to confirm whether or not Cyclic T14 affects the enzymatic activity of acetylcholinesterase (AChE). AChE enzymatic activity was measured using the acetylcholinesterase activity assay.

With `CSCC[C@@H]1NC(=O)[C@H](Cc2ccc(O)cc2)NC(=O)[C@H](CO)NC(=O)[C@H](CO)NC(=O)[C@H](Cc2c[nH]c3ccccc23)NC(=O)[C@H](CCCNC(=N)N)NC(=O)[C@H](Cc2c[nH]cn2)NC(=O)[C@H](Cc2ccccc2)NC(=O)[C@H](CCC(=O)O)NC(=O)[C@H](C)NC(=O)[C@H](CCCCN)NC(=O)[C@H](Cc2c[nH]c3ccccc23)NC(=O)[C@H](Cc2c[nH]cn2)NC(=O)[C@H](C(C)C)NC1=O` [Cyclic T14] (cyclo(AEFHRWSSYMVHWK)) the “intracellular calcium level raised by β-Amyloid, combined with Cyclic T14” value (rat brain slices; Cyclic T14 1 μM + β-Amyloid 10 μM) was “returned to baseline”, the “intracellular calcium level, compound alone” value (rat brain slices; Cyclic T14 1 μM) was “does not change the basal level” and the “effect on enzyme activity of acetylcholinesterase” value ([1]; 2 μM) was “did not affect”. The “effect on AChE activity (Table 3 feature)” value ([1]; ✓ = Dream Drug feature 'Does not affect AChE activity') was “✓”.
